Experimental data from patent US10131670B2, “Bicyclic heteroaryl derivatives as CFTR potentiators” (CYSTIC FIBROSIS FOUNDATION THERAPEUTICS, INC., priority 2016, dated 2018).

Key:
CFTR = CFTR (Homo sapiens, UniProt P13569); assay: Ussing Chamber Electrophysiology Assay of CFTR Potentiation in CF Bronchial Epithelial Cells; assay type: cell-based; details: primary CF hBE cells, short-circuit current, scaled to DMSO (0%) and positive control potentiator (100%)
Description: Ussing Chamber Electrophysiology Assay of CFTR Potentiation in CF Bronchial Epithelial Cells
Primary cystic fibrosis human bronchial epithelial (CF hBE) cells were expanded and cultured according to published methods (Neuberger et al., Ch. 4 of Cystic Fibrosis, Methods in Molecular Biology vol. 741, pp. 39-54 (2011)). Well-differentiated cells (>30 days at air/liquid interface) on Snapwell filters (Corning Costar, cat. no. 3801) were mounted in Ussing chambers (Physiologic Instruments, Inc., San Diego, Calif.). F508del/F508del cultures were assayed at 27° C. and G551D/F508del cells were assayed at 35° C. HEPES buffered physiological saline (composition (in mM): 137 NaCl, 4 KCl, 1 MgCl2, 1.8 CaCl2, 10 HEPES Na) was used in both apical and basolateral chambers. Chambers were bubbled with air to promote mixing and the voltage was clamped to zero. Amiloride (30 uM), forskolin (10 uM), test compound (4 increasing concentrations), and CFTRinh-172 (20 uM) were added sequentially with 20-25 minutes between additions. Short-circuit currents were acquired and analyzed using LabScribe2. Test compound responses were scaled relative to responses for DMSO (0%) and the maximal response of a positive control potentiator (100%).

F508del V470 CFTR = F508del V470 CFTR (Homo sapiens, UniProt P13569, DEL508-508); assay: FRT Ion Flux Assay of F508del CFTR Potentiation; assay type: cell-based; details: FRT cells expressing F508del V470 CFTR and halide-sensitive YFP, forskolin 20 uM, 30 min
Chain of F508del V470 CFTR (P13569 with tags, fused parts or gaps DEL508-508): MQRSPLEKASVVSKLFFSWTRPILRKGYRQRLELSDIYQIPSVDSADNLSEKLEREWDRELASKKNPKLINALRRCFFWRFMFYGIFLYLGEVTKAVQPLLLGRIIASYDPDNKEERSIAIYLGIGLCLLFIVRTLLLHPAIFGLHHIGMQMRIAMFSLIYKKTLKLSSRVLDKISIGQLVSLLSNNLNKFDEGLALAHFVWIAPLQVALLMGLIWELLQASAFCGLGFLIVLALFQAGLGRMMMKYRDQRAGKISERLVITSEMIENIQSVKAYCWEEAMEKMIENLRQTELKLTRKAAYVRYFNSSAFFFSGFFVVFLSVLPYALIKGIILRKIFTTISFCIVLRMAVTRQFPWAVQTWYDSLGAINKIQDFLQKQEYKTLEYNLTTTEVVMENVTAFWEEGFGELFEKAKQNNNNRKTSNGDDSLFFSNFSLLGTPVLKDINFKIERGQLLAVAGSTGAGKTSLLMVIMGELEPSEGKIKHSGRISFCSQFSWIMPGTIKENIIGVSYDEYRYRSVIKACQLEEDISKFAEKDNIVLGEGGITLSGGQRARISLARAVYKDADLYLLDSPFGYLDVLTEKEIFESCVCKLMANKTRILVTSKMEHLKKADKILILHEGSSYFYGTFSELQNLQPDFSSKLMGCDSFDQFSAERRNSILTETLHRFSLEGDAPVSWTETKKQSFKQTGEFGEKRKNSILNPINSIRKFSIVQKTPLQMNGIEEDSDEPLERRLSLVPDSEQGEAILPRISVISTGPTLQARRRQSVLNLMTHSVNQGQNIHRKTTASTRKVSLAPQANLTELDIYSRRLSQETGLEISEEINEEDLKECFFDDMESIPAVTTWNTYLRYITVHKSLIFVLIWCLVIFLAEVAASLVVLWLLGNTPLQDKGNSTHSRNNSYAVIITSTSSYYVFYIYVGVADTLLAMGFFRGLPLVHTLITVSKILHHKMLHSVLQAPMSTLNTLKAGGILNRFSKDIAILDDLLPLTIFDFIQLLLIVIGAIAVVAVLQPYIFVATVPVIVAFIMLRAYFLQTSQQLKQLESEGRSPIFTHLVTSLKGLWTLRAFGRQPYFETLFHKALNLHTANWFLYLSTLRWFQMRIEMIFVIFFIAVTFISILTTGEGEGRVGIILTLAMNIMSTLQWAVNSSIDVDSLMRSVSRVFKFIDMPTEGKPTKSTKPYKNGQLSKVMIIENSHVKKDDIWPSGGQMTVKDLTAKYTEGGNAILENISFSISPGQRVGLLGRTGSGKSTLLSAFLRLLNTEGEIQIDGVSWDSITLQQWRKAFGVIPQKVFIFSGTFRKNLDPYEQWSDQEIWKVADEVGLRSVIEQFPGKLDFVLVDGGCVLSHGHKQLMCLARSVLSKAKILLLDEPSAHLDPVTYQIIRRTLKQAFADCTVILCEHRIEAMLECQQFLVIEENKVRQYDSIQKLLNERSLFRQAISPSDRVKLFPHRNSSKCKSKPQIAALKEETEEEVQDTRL
Procedure: FRT Ion Flux Assay of F508del CFTR Potentiation
Fischer rat thyroid (FRT) cell lines stably expressing recombinant F508del V470 CFTR and halide-sensitive yellow fluorescent protein (Pedemonte et al., J. Clin. Invest. 115(9) 2564-71 (2005)) were seeded at 25,000 cells/well in 50 uL/well of culture medium into black-walled, clear bottom tissue-culture-treated 384-well plates (Corning, cat. no. 3712). After one day, the cells were pre-incubated at 27° C./5% CO2 for 16-24 hours. The cells were then washed with dPBS and treated with forskolin (20 uM) and test compound for 30 min by addition of 20 uL of compound dilution buffer (dPBS containing forskolin and test compound). Plates were loaded into FLIPR384 fluorescence imaging plate reader (Molecular Devices). After an initial fluorescence reading, iodide buffer (25 uL) (composition (in mM): 137 NaI, 1.5 K2PO4, 8.1 NaH2PO4, 2.7 KCl, 0.5 MgCl2, 1 CaCl2) was added and a second fluorescence reading was made after approximately 21 seconds. Data treatment involved division of the second fluorescence reading by the initial fluorescence reading, then scaling of the resulting normalized endpoint fluorescence with respect to the responses for DMSO (0%) and a positive control potentiator (100%).

Compound	EC50 (CFTR) [nM]	EC50 (F508del V470 CFTR) [nM]
CCC(c1cnn(-c2ccc(F)cc2F)c1)c1c(C#N)c(-c2cnc(C(F)(F)F)nc2)c2c(N)ncnn12 (single isomer, unassigned) [Example 16, 4-amino-7-{1-[1-(2,4-difluorophenyl)-1H-pyrazol-4-yl]propyl}-5-[2-(trifluoromethyl)pyrimidin-5-yl]pyrrolo[2,1-f][1,2,4]thazine-6-carbonitrile]	0.42	0.56
CCC(c1cn(-c2ccccc2F)nn1)c1cc(-c2cnc(C(F)(F)F)nc2)c2c(N)ncnn12 (centres unmarked) [Example 82, 7-{1-[1-(2-fluorophenyl)-1H-1,2,3-triazol-4-yl]propyl}-5-[2-(trifluoromethyl)pyrimidin-5-yl]pyrrolo[2,1-f][1,2,4]triazin-4-amine]	4.93	5.83
CC(c1cn(-c2ccc(F)cc2F)nn1)c1c(C#N)c(-c2cnc(C(F)(F)F)nc2)c2c(N)ncnn12 (centres unmarked) [Example 24, 4-amino-7-{1-[1-(2,4-difluorophenyl)-1H-1,2,3-triazol-4-yl]ethyl}-5-[2-(trifluoromethyl)pyrimidin-5-yl]pyrrolo[2,1-f][1,2,4]triazine-6-carbonitrile]	20.9	28.7
CCC(c1cn(-c2ccc(F)cc2F)nn1)c1cc(-c2cnc(C(F)(F)F)nc2)c2c(N)ncnn12 (single isomer, unassigned) [Example 59, 7-{1-[1-(2,4-difluorophenyl)-1H-1,2,3-triazol-4-yl]propyl}-5-[2-(trifluoromethyl)pyrimidin-5-yl]pyrrolo[2,1-f][1,2,4]triazin-4-amine]	115	249
CCC(c1cn(-c2ccccc2F)nn1)c1cc(-c2cncnc2OC)c2c(N)ncnn12 (single isomer, unassigned) [Example 66, 7-{1-[1-(2-fluorophenyl)-1H-1,2,3-triazol-4-yl]propyl}-5-(4-methoxypyrimidin-5-yl)pyrrolo[2,1-f][1,2,4]triazin-4-amine]	123	524
CC(c1cn(-c2ccc(F)cc2F)nn1)c1cc(-c2cnc(C(F)(F)F)nc2)c2c(N)ncnn12 (single isomer, unassigned) [Example 55, 7-{1-[1-(2,4-difluorophenyl)-1H-1,2,3-triazol-4-yl]ethyl}-5-[2-(trifluoromethyl)pyrimidin-5-yl]pyrrolo[2,1-f][1,2,4]triazin-4-amine]	225	266
CCC(c1cnn(-c2ccc(F)cc2F)c1)c1c(C#N)c(-c2cnc(C(F)(F)F)nc2)c2c(N)ncnn12 (single isomer, unassigned) [Example 17, 4-amino-7-{1-[1-(2,4-difluorophenyl)-1H-pyrazol-4-yl]propyl}-5-[2-(trifluoromethyl)pyrimidin-5-yl]pyrrolo[2,1-f][1,2,4]triazine-6-carbonitrile]	3	13.3
CCC(c1cn(-c2ccc(F)cc2F)nn1)n1nc(-c2cnc(C(F)(F)F)nc2)c2c(N)ncnc21 (single isomer, unassigned) [Example 99, 1-{1-[1-(2,4-difluorophenyl)-1H-1,2,3-triazol-4-yl]propyl}-3-[2-(trifluoromethyl)pyrimidin-5-yl]-1H-pyrazolo[3,4-d]pyrimidin-4-amine]	29.2	37.2
CCC(c1cn(-c2ccccc2F)nn1)c1c(C#N)c(-c2cnc(C(F)(F)F)nc2)c2c(N)ncnn12 (single isomer, unassigned) [Example 4, 4-amino-7-{1-[1-(2-fluorophenyl)-1H-1,2,3-triazol-4-yl]propyl}-5-[2-(trifluoromethyl)pyrimidin-5-yl]pyrrolo[2,1-f][1,2,4]triazine-6-carbonitrile]	20.5	35.8
CCC(c1cn(-c2ccccc2F)nn1)c1c(C#N)c(-c2cnc(C(F)(F)F)nc2)c2c(N)ncnn12 (centres unmarked) [Example 25, 4-amino-7-{1-[1-(2-fluorophenyl)-1H-1,2,3-triazol-4-yl]propyl}-5-[2-(trifluoromethyl)pyrimidin-5-yl]pyrrolo[2,1-f][1,2,4]triazine-6-carbonitrile]	7.86	–
CC(O)(c1cn(-c2ccccc2F)nn1)c1cc(-c2cnc(C(F)(F)F)nc2)c2c(N)ncnn12 (single isomer, unassigned) [Example 68, 1-{4-amino-5-[2-(trifluoromethyl)pyrimidin-5-yl]pyrrolo[2,1-f][1,2,4]triazin-7-yl}-1-[1-(2-fluorophenyl)-1H-1,2,3-triazol-4-yl]ethanol]	–	2310

The remaining compounds from weak to strong by EC50 (CFTR), led by results:

EC50 (CFTR) [nM]	EC50 (F508del V470 CFTR) [nM]	Compound
74.4	50.3	CCC(c1cn(-c2ccccc2)nn1)n1nc(-c2cnc(C(F)(F)F)nc2)c2c(N)ncnc21 (single isomer, unassigned) [Example 94, 1-[1-(1-phenyl-1H-1,2,3-triazol-4-yl)propyl]-3-[2-(trifluoromethyl)pyrimidin-5-yl]-1H-pyrazolo[3,4-d]pyrimidin-4-amine]
31.5	31.8	CCC(c1cn(-c2ccccc2F)nn1)n1nc(-c2cnc(C(F)(F)F)nc2)c2c(N)ncnc21 (single isomer, unassigned) [Example 90, 1-{1-[1-(2-fluorophenyl)-1H-1,2,3-triazol-4-yl]propyl}-3-[2-(trifluoromethyl)pyrimidin-5-yl]-1H-pyrazolo[3,4-d]pyrimidin-4-amine]
31	78.8	CCC(c1cnn(-c2ccccc2F)c1)n1nc(-c2cnc(C(F)(F)F)nc2)c2c(N)ncnc21 (single isomer, unassigned) [Example 88, 1-{1-[1-(2-fluorophenyl)-1H-pyrazol-4-yl]propyl}-3-[2-(trifluoromethyl)pyrimidin-5-yl]-1H-pyrazolo[3,4-d]pyrimidin-4-amine]
19.3	29.6	CCC(c1cn(-c2ccc(F)c(F)c2)nn1)c1cc(-c2cnc(C(F)(F)F)nc2)c2c(N)ncnn12 (single isomer, unassigned) [Example 63, 7-{1-[1-(3,4-difluorophenyl)-1H-1,2,3-triazol-4-yl]propyl}-5-[2-(trifluoromethyl)pyrimidin-5-yl]pyrrolo[2,1-f][1,2,4]triazin-4-amine]
16	18.4	CCC(c1cn(-c2ccccc2F)nn1)c1cc(-c2cncnc2OC)c2c(N)ncnn12 (centres unmarked) [Example 83, 7-{1-[1-(2-fluorophenyl)-1H-1,2,3-triazol-4-yl]propyl}-5-(4-methoxypyrimidin-5-yl)pyrrolo[2,1-f][1,2,4]triazin-4-amine]
9.95	17.6	CCC(c1cn(-c2cc(F)ccc2F)nn1)c1cc(-c2cnc(C(F)(F)F)nc2)c2c(N)ncnn12 (single isomer, unassigned) [Example 62, 7-{1-[1-(2,5-difluorophenyl)-1H-1,2,3-triazol-4-yl]propyl}-5-[2-(trifluoromethyl)pyrimidin-5-yl]pyrrolo[2,1-f][1,2,4]triazin-4-amine]
3.87	–	CC(c1cnn(-c2ccccc2F)c1)c1c(C#N)c(-c2cnc(C(F)F)nc2)c2c(N)ncnn12 (single isomer, unassigned) [Example 97, 4-amino-5-[2-(difluoromethyl)pyrimidin-5-yl]-7-{1-[1-(2-fluorophenyl)-1H-pyrazol-4-yl]ethyl}pyrrolo[2,1-f][1,2,4]triazine-6-carbonitrile]
3.02	2.13	CCC(c1cn(-c2ccccc2F)nn1)c1c(C#N)c(-c2cnc(C(F)(F)F)nc2)c2c(N)ncnn12 (single isomer, unassigned) [Example 5, 4-amino-7-{1-[1-(2-fluorophenyl)-1H-1,2,3-triazol-4-yl]propyl}-5-[2-(trifluoromethyl)pyrimidin-5-yl]pyrrolo[2,1-f][1,2,4]triazine-6-carbonitrile]
2	1.88	CCC(c1cn(-c2ccccc2F)nn1)c1cc(-c2cnc(C(F)(F)F)nc2)c2c(N)ncnn12 (single isomer, unassigned) [Example 57, 7-{1-[1-(2-fluorophenyl)-1H-1,2,3-triazol-4-yl]propyl}-5-[2-(trifluoromethyl)pyrimidin-5-yl]pyrrolo[2,1-f][1,2,4]triazin-4-amine]
0.4	–	CC(c1cnn(-c2ccccc2F)c1)c1c(C#N)c(-c2cnc(C(F)F)nc2)c2c(N)ncnn12 (single isomer, unassigned) [Example 96, 4-amino-5-[2-(difluoromethyl)pyrimidin-5-yl]-7-{1-[1-(2-fluorophenyl)-1H-pyrazol-4-yl]ethyl}pyrrolo[2,1-f][1,2,4]triazine-6-carbonitrile]
